What all share (assay type): cell-based, human
For one series, the system named is A549 lung cancer cells. The series is described as follows: Alamar Blue proliferation assay, A549. From the text: (§1) The inventors assessed the therapeutic effect of hsa-miR-126 for lung cancer by using 11 individual lung cancer cell lines. To measure cellular proliferation of lung cancer cells, the following non-small cell lung cancer (NSCLC) cells were used: cells derived from lung adenocarcinoma (A549, H1299, H522, H838, Calu-3, HCC827, HCC2935), cells derived from lung squamous cell carcinoma (H520, H226), cells derived from lung bronchioalveolar carcinoma (H1650), and cells derived from lung large cell carcinoma (H460). Synthetic hsa-miR-126 (Pre-miR™-hsa-miR-126, Ambion cat. no. AM17100) or negative control (NC) miRNA (Pre-miR™ microRNA Precursor Molecule-Negative Control #2; Ambion cat. no. AM17111) was delivered via lipid-based transfection into A549, H1299, H522, H838, Calu-3, HCC827, HCC2935, H520, H1650, and H460 cells, and via electroporation into H226 cells.
(§2) Lipid-based reverse transfections were carried out in triplicate according to a published protocol (Ovcharenko et al., 2005) and the following parameters: Cells (5,000-12,000 per 96 well), 0.1-0.2 μl Lipofectamine™ 2000 (cat. no. 11668-019, Invitrogen Corp., Carlsbad, Calif., USA) in 20 μl OptiMEM (Invitrogen), 30 nM final concentration of miRNA in 100 μl. Electroporation of H226 cells was carried out using the BioRad Gene Pulser Xcell™ instrument (BioRad Laboratories Inc., Hercules, Calif., USA) with the following settings: 5×10^6 cells with 5 μg miRNA in 200 μl OptiMEM (1.6 μM miRNA), square wave pulse at 250 V for 5 ms. Electroporated H226 cells were seeded at 7,000 cells per 96-well in a total volume of 100 μl. All cells except for Calu-3 cells were harvested 72 hours post transfection or electroporation for assessment of cellular proliferation. Calu-3 cells were harvested 10 days post transfection. Proliferation assays were performed using Alamar Blue (Invitrogen) following the manufacturer's instructions. As a control for inhibition of cellular proliferation, siRNA against the motor protein kinesin 11, also known as Eg5, was used. […]
On the technique in general: Resazurin is reduced to fluorescent resorufin, in cell work by metabolically active cells.

The next series has as its system H838 lung cancer cells. Nature of the series: Alamar Blue proliferation assay, H838. The note with it: relative to NC miRNA (100%).
From the text: as §1, §2

The subject of a further series is HCC827 lung cancer cells. Nature of the series: Alamar Blue proliferation assay, HCC827. As to conditions: relative to NC miRNA (100%).
From the text: as §1, §2

Another series deals with H460 lung cancer cells. The series is described as follows: Pair-wise miRNA combinations, Alamar Blue proliferation. As to conditions: for % proliferation: mock-transfected cells, 48 h. The text has this:
miRNAs function in multiple pathways controlling multiple cellular processes. Cancer cells frequently show aberrations in several different pathways, which determine their oncogenic properties. […] The inventors assessed the efficacy of pair-wise miRNA combinations, administering hsa-miR-126 concurrently with either hsa-miR-34a, hsa-miR-124a, hsa-miR-147, hsa-let-7b, hsa-let-7c or hsa-let-7g (Pre-miR™ miRNA, Ambion cat. no. AM17100). H460 lung cancer cells were transiently reverse-transfected in triplicates with each miRNA at a final concentration of 300 pM, resulting in 600 pM of oligonucleotide. For negative controls, 600 pM of Pre-miR™ microRNA
Precursor Molecule-Negative Control #2 (Ambion cat. no. AM17111) were used. To correlate the effect of various combinations with the effect of the sole miRNA, each miRNA at 300 pM was also combined with 300 pM negative control miRNA. Reverse transfection was carried using the following parameters: 7,000 cells per 96 well, 0.15 μl Lipofectamine™ 2000 (Invitrogen) in 20 μl OptiMEM (Invitrogen), 100 μl total transfection volume. As an internal control for the potency of miRNA, etoposide was added at 10 μM and 50 μM to mock-transfected cells, 24 hours after transfection for the following 48 hours. Cells were harvested 72 hours after transfection and subjected to Alamar Blue assays (Invitrogen). Percent proliferation values from the Alamar Blue assay were normalized to those obtained from cells treated with 600 pM negative control miRNA. Data are expressed as % proliferation relative to negative control miRNA-treated cells (Table 8).
Additive activity of pair-wise combinations (e.g. hsa-miR-126 plus hsa-let-7b) is defined as an activity that is greater than the sole activity of each miRNA (e.g., the activity of hsa-miR-126 plus hsa-let-7b is greater than that observed for hsa-miR-126 plus NC and the activity of hsa-miR-126 plus hsa-let-7b is greater than that observed for hsa-let-7b plus NC). […]

As to `COc1cc([C@@H]2c3cc4c(cc3[C@@H](O[C@@H]3O[C@@H]5CO[C@@H](C)O[C@H]5[C@H](O)[C@H]3O)[C@H]3COC(=O)[C@H]23)OCO4)cc(OC)c1O` [etoposide], the “% proliferation” value in the series with A549 lung cancer cells (A549, 50 μM, relative to NC miRNA (100%)) amounted to 42.18%; in the series on A549 lung cancer cells (A549, relative to NC miRNA (100%)) it was 49.13%; in the series on H838 lung cancer cells (H838, 30 nM), 89.71%; with H838 lung cancer cells (H838, 50 μM), 36.97%; with HCC827 lung cancer cells (HCC827, 30 nM) it was 82.53%; in the series with HCC827 lung cancer cells (HCC827, 10 μM) it was 98.95%. For the same compound, the “% proliferation” value in the series on H460 lung cancer cells (H460, 10 μM) stood at 20.19%; in the series on H460 lung cancer cells (H460, 50 μM), 14.94%.

Take “hsa-miR-126 (UCGUACCGUGAGUAAUAAUGC; synthetic pre-miR form, further chemistry not given here) [Synthetic hsa-miR-126 (Pre-miR™-hsa-miR-126, Ambion cat. no. AM17100)]”: the “% proliferation” value is on record as 84.30% with A549 lung cancer cells (A549, 30 nM, 72 h, relative to NC miRNA (100%)); 74.05% with H838 lung cancer cells (H838, 30 nM, 72 h); 84.31% in the series with HCC827 lung cancer cells (HCC827, 30 nM, 72 h). The reduction of proliferation in the series with H460 lung cancer cells (H460, 300 pM) amounted to 10.54%.

These data come from US20090131354A1, “miR-126 REGULATED GENES AND PATHWAYS AS TARGETS FOR THERAPEUTIC INTERVENTION” (priority 2007, published 2009).
